Laboratory results as given in patent US5631222A, “Endothelin-antagonizing peptide” (Kyowa Hakko Kogyo Co., Ltd., priority 1993, dated 1997).
Positions of bridges follow the written chain, without caps; N, C: chain ends. Non-standard residues stand in square brackets, D forms with d. Residues, ends and D or L forms follow the SMILES beside them. 2Thi = N[C@@H](Cc1cccs1)C(=O)O; Cha = N[C@@H](CC1CCCCC1)C(=O)O; NMeL = CN[C@@H](CC(C)C)C(=O)O; Nle = CCCC[C@H](N)C(=O)O

Biological target: T1, endothelin receptor (Bos taurus, UniProt P28088)
T1 construct: the suspension was used as a membrane fraction liquid; from tissue; host or cells: bovine cerebellum membrane fraction
T1 sequence (P28088 27-441): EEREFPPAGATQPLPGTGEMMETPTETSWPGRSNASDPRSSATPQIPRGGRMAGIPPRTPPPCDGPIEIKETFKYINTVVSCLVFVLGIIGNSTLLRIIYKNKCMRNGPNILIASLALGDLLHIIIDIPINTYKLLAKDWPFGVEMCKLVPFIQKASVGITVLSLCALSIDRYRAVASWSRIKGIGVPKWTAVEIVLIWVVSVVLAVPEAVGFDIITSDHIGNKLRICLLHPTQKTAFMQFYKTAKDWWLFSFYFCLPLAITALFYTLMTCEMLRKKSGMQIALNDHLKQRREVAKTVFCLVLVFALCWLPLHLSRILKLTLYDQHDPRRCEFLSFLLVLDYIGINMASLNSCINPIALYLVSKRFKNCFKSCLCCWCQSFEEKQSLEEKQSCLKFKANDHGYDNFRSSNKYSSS
Experiment: Endothelin receptor-antagonizing activity: inhibition of 125I-endothelin-1 binding to bovine cerebellum membrane fraction
Conditions: 125I-Endothelin-1, bovine cerebellum membrane fraction, 25° C. for 2 hours; read-out: IC50: Concentration causing 50% inhibition of endothelin1 binding
Procedure: Bovine cerebellum tissue was homogenized at 4° C. by using POLYTRON (type PT10/35, manufactured by Kinematic Gmbh Co.) in a buffer solution A (1 mM NaHCO3, 5 mM ethylenediaminetetraacetic acid, 5 μg/ml leupeptin, 5 μg/ml pepstatin A, 40 μM phenylmethylsulfonyl fluoride, pH 8.3).
The obtained suspension was centrifuged for 10 minutes at 8,000 G and 4° C., and the resulting supernatant was centrifuged for 60 minutes at 40,000 G and 4° C. to obtain pellets. The obtained pellets were suspended in a buffer solution A and again centrifuged for 60 minutes at 40,000 G and 4° C. The resulting solid substance was prepared as a suspension containing 2 mg/ml of protein, and the suspension was used as a membrane fraction liquid. […] These mixtures were incubated at 25° C. for 2 hours, and then filtered with a GF/B glass filter (produced by Whatman Co.). […] The inhibition ratio against endothelin receptor binding activity was calculated according to the following equation:
Inhibition ratio (%)=(C-A/C-B)×100
B: Radioactivity in the presence of unlabelled endothelin-1
C: Radioactivity in the absence of both of the compound shown in Table 2 and unlabelled endothelin-1

Molecule	IC50 [nM]
CC[C@H](C)[C@H](NC(=O)[C@H](Cc1cccs1)NC(=O)[C@@H](NC(=O)[C@H](CC(C)C)NC(=O)[C@@H](Cc1c[nH]c2ccccc12)NC(=O)[C@H](C)NC(=O)[C@H](Cc1ccccc1)NC(=O)[C@H](Cc1ccc(O)cc1)NC(=O)[C@@H](NC(=O)[C@H](Cc1c[nH]c2ccccc12)NC(=O)[C@H](CC(=O)O)NC(=O)[C@@H]1CCCN1C(=O)[C@H](C)NC(=O)[C@@H](NC(=O)CNC(=O)[C@H](Cc1c[nH]cn1)NC(=O)[C@H](Cc1c[nH]c2ccccc12)NC(=O)[C@H](CC(N)=O)NC(=O)CN)[C@@H](C)O)C(C)C)[C@@H](C)O)C(=O)N[C@@H](Cc1c[nH]c2ccccc12)C(=O)O [Compound 28, HGlyAsnTrpHisGlyThrAlaProAspTrpValTyrPheAlaD-TrpLeuThrThiIleTrpOH] (H-GNWHGTAPDWVYFA[dW]LT[2Thi]IW-OH)	89
CC[C@H](C)[C@H](NC(=O)[C@H](CC(=O)O)NC(=O)[C@H](CC(C)C)NC(=O)[C@H](Cc1c[nH]cn1)NC(=O)[C@H](C)NC(=O)[C@H](Cc1ccccc1)NC(=O)[C@H](Cc1ccc(O)cc1)NC(=O)[C@@H](NC(=O)[C@H](Cc1c[nH]c2ccccc12)NC(=O)[C@@H]1CC(=O)NCC(=O)N[C@@H](CO)C(=O)N[C@@H](C)C(=O)N[C@@H](C)C(=O)N[C@@H](C(C)C)C(=O)N[C@@H](Cc2ccc(O)cc2)C(=O)N[C@@H](Cc2ccccc2)C(=O)N1)C(C)C)C(=O)N[C@H](C(=O)N[C@@H](Cc1c[nH]c2ccccc12)C(=O)O)[C@@H](C)CC [Compound 53] (GSAAVYFDWVYFAHLDIIW-OH; lactam N-8)	2.4
H-GNWHGGAPDWVYFAHLDIIW-OH [Compound 3]	0.064
CC[C@H](C)[C@H](NC(=O)[C@H](CC(C)C)N(C)C(=O)[C@@H](NC(=O)[C@H](CC(C)C)NC(=O)[C@H](Cc1c[nH]cn1)NC(=O)[C@H](C)NC(=O)[C@H](Cc1ccccc1)NC(=O)[C@H](Cc1ccc(O)cc1)NC(=O)[C@@H](NC(=O)[C@H](Cc1c[nH]c2ccccc12)NC(=O)[C@H](CC(=O)O)NC(=O)[C@@H]1CCCN1C(=O)[C@H](C)NC(=O)[C@@H](NC(=O)CNC(=O)[C@H](Cc1c[nH]cn1)NC(=O)[C@H](Cc1c[nH]c2ccccc12)NC(=O)[C@H](CC(N)=O)NC(=O)CN)[C@@H](C)O)C(C)C)[C@@H](C)O)C(=O)N[C@@H](Cc1c[nH]c2ccccc12)C(=O)O [Compound 23, HGlyAsnTrpHisGlyThrAlaProAspTrpValTyrPheAlaHisLeuThrMeLeuIleTrpOH] (H-GNWHGTAPDWVYFAHLT[NMeL]IW-OH)	54
H-WHGTAPDWVYFAHLDIIW-OH [Compound 8, HTrpHisGlyThrAlaProAspTrpValTyrPheAlaHisLeuAspIleIleTrpOH]	0.076
CC[C@H](C)[C@H](NC(=O)[C@H](Cc1cccs1)NC(=O)[C@@H](NC(=O)[C@H](CC(C)C)NC(=O)[C@H](Cc1c[nH]cn1)NC(=O)[C@H](C)NC(=O)[C@H](Cc1ccccc1)NC(=O)[C@H](Cc1ccc(O)cc1)NC(=O)[C@@H](NC(=O)[C@H](Cc1c[nH]c2ccccc12)NC(=O)[C@H](CC(=O)O)NC(=O)[C@@H]1CCCN1C(=O)[C@H](C)NC(=O)[C@@H](NC(=O)CNC(=O)[C@H](Cc1c[nH]cn1)NC(=O)[C@H](Cc1c[nH]c2ccccc12)NC(=O)[C@H](CC(N)=O)NC(=O)CN)[C@@H](C)O)C(C)C)[C@@H](C)O)C(=O)N[C@H](Cc1c[nH]c2ccccc12)C(=O)O [Compound 42, HGlyAsnTrpHisGlyThrAlaProAspTrpValTyrPheAlaHisLeuThrThiIleD-TrpOH] (H-GNWHGTAPDWVYFAHLT[2Thi]I[dW]-OH)	210
H-GNWHGTAPDWVYFAHLEIIW-OH [Compound 43]	17
CC[C@@H](C)[C@@H](NC(=O)[C@H](Cc1cccs1)NC(=O)[C@@H](NC(=O)[C@H](CC(C)C)NC(=O)[C@H](Cc1c[nH]cn1)NC(=O)[C@H](C)NC(=O)[C@H](Cc1ccccc1)NC(=O)[C@H](Cc1ccc(O)cc1)NC(=O)[C@@H](NC(=O)[C@H](Cc1c[nH]c2ccccc12)NC(=O)[C@H](CC(=O)O)NC(=O)[C@@H]1CCCN1C(=O)[C@H](C)NC(=O)[C@@H](NC(=O)CNC(=O)[C@H](Cc1c[nH]cn1)NC(=O)[C@H](Cc1c[nH]c2ccccc12)NC(=O)[C@H](CC(N)=O)NC(=O)CN)[C@@H](C)O)C(C)C)[C@@H](C)O)C(=O)N[C@@H](Cc1c[nH]c2ccccc12)C(=O)O [Compound 31, HGlyAsnTrpHisGlyThrAlaProAspTrpValTyrPheAlaHisLeuThrThiD-IleTrpOH] (H-GNWHGTAPDWVYFAHLT[2Thi][dI]W-OH)	210
H-GNWHGTAPDWVYFAHLDIIF-OH [Compound 5]	11
CCCC[C@H](NC(=O)[C@@H](NC(=O)[C@H](CC(C)C)NC(=O)[C@H](Cc1c[nH]cn1)NC(=O)[C@H](C)NC(=O)[C@H](Cc1ccccc1)NC(=O)[C@H](Cc1ccc(O)cc1)NC(=O)[C@@H](NC(=O)[C@H](Cc1c[nH]c2ccccc12)NC(=O)[C@H](CC(=O)O)NC(=O)[C@@H]1CCCN1C(=O)[C@H](C)NC(=O)[C@@H](NC(=O)CNC(=O)[C@H](Cc1c[nH]cn1)NC(=O)[C@H](Cc1c[nH]c2ccccc12)NC(=O)[C@H](CC(N)=O)NC(=O)CN)[C@@H](C)O)C(C)C)[C@@H](C)O)C(=O)N[C@H](C(=O)N[C@@H](Cc1c[nH]c2ccccc12)C(=O)O)[C@@H](C)CC [Compound 26, HGlyAsnTrpHisGlyThrAlaProAspTrpValTyrPheAlaHisLeuThrNleIleTrpOH] (H-GNWHGTAPDWVYFAHLT[Nle]IW-OH)	0.63
H-GNWHGTAPDWFAHLDIIW-OH [Compound 11, HGlyAsnTrpHisGlyThrAlaProAspTrpPheAlaHisLeuAspIleIleTrpOH]	6.1
CC[C@H](C)[C@H](NC(=O)[C@H](CC1CCCCC1)NC(=O)[C@@H](NC(=O)[C@H](CC(C)C)NC(=O)[C@H](Cc1c[nH]cn1)NC(=O)[C@H](C)NC(=O)[C@H](Cc1ccccc1)NC(=O)[C@H](Cc1ccc(O)cc1)NC(=O)[C@@H](NC(=O)[C@H](Cc1c[nH]c2ccccc12)NC(=O)[C@@H]1CSSC[C@H](N)C(=O)N[C@@H](CC(N)=O)C(=O)N[C@@H](Cc2c[nH]c3ccccc23)C(=O)N[C@@H](Cc2c[nH]cn2)C(=O)NCC(=O)N[C@@H]([C@@H](C)O)C(=O)N[C@@H](C)C(=O)N2CCC[C@H]2C(=O)N1)C(C)C)[C@@H](C)O)C(=O)N[C@@H](Cc1c[nH]c2ccccc12)C(=O)O [Compound 39] (H-CNWHGTAPCWVYFAHLT[Cha]IW-OH; disulfide 1-9)	280
H-NWHGTAPDWVYFAHLDIIW-OH [Compound 7, HAsnTrpHisGlyThrAlaProAspTrpValTyrPheAlaHisLeuAspIleIleTrpOH]	0.1
CC[C@H](C)[C@H](NC(=O)[C@H](Cc1cccs1)NC(=O)[C@@H](NC(=O)[C@H](CC(C)C)NC(=O)[C@H](Cc1c[nH]cn1)NC(=O)[C@H](C)NC(=O)[C@H](Cc1ccccc1)NC(=O)[C@H](Cc1ccc(O)cc1)NC(=O)[C@@H]1CCCN1C(=O)[C@H](Cc1c[nH]c2ccccc12)NC(=O)[C@H](CC(=O)O)NC(=O)[C@@H]1CCCN1C(=O)[C@H](C)NC(=O)[C@@H](NC(=O)CNC(=O)[C@H](Cc1c[nH]cn1)NC(=O)[C@H](Cc1c[nH]c2ccccc12)NC(=O)[C@H](CC(N)=O)NC(=O)CN)[C@@H](C)O)[C@@H](C)O)C(=O)N[C@@H](Cc1c[nH]c2ccccc12)C(=O)O [Compound 48, HGlyAsnTrpHisGlyThrAlaProAspTrpProTyrPheAlaHisLeuThrThiIleTrpOH] (H-GNWHGTAPDWPYFAHLT[2Thi]IW-OH)	5
CC[C@H](C)[C@H](NC(=O)[C@H](CCSC)NC(=O)[C@H](CO)NC(=O)[C@H](CC(C)C)NC(=O)[C@H](Cc1c[nH]cn1)NC(=O)[C@H](C)NC(=O)[C@@H](Cc1ccccc1)NC(=O)[C@H](Cc1ccc(O)cc1)NC(=O)[C@@H](NC(=O)[C@H](Cc1c[nH]c2ccccc12)NC(=O)[C@H](CC(=O)O)NC(=O)[C@@H]1CCCN1C(=O)[C@H](C)NC(=O)[C@@H](NC(=O)CNC(=O)[C@H](Cc1c[nH]cn1)NC(=O)[C@H](Cc1c[nH]c2ccccc12)NC(=O)[C@H](CC(N)=O)NC(=O)CN)[C@@H](C)O)C(C)C)C(=O)N[C@@H](Cc1c[nH]c2ccccc12)C(=O)O [Compound 45, HGlyAsnTrpHisGlyThrAlaProAspTrpValTyrD-PheAlaHisLeuSerMetIleTrpOH] (H-GNWHGTAPDWVY[dF]AHLSMIW-OH)	3.3
CC[C@H](C)[C@H](NC(=O)[C@H](Cc1cccs1)NC(=O)[C@@H](NC(=O)[C@H](CC(C)C)NC(=O)[C@H](Cc1c[nH]cn1)NC(=O)[C@H](C)NC(=O)[C@H](Cc1ccccc1)NC(=O)[C@H](Cc1ccc(O)cc1)NC(=O)[C@@H](NC(=O)[C@H](Cc1c[nH]c2ccccc12)NC(=O)[C@@H]1CC(=O)NCC(=O)N[C@@H](CC(N)=O)C(=O)N[C@@H](Cc2c[nH]c3ccccc23)C(=O)N[C@@H](Cc2c[nH]cn2)C(=O)NCC(=O)N[C@@H]([C@@H](C)O)C(=O)N[C@@H](C)C(=O)N2CCC[C@H]2C(=O)N1)C(C)C)[C@@H](C)O)C(=O)N[C@@H](Cc1c[nH]c2ccccc12)C(=O)O [Compound 41] (GNWHGTAPDWVYFAHLT[2Thi]IW-OH; lactam N-9)	2.5
